The results in this text go back to patent publication US10745389B2, “HDAC6 selective inhibitors, preparation method therefor, and application thereof” (CSTONE PHARMACEUTICALS (SUZHOU) CO., LTD., priority 2017, dated 2020).

Each structure is given as a SMILES string.

The test system of the experiment is human myeloma MM.1S cells subcutaneous xenograft tumor. Kind of experiment: In vivo pharmacodynamic study with Ixazomib, MM.1S subcutaneous xenograft in CB-17 SCID model. Also noted: species or system CB-17 SCID mouse. Conditions: Ixazomib 4 mg/kg administered alone, 21st day. As for the experimental part: The purpose of this experiment was to investigate the in vivo therapeutic effect of the compounds of the present invention in combination with proteasome inhibitor Ixazomib on human myeloma MM.1S cell subcutaneous xenografts in the CB-17 SCID model.
Human myeloma MM. S cells were cultured in vitro in a single layer, culture environment was RPMI-1640 medium (supplier: Gibco; Cat. No. 22400-089) supplemented with 10% fetal bovine serum, 37° C. 5% CO2 incubator. Then passage was done by routinely digested with trypsin-EDTA twice a week. When the cell saturation rate reached 80%-90%, the cells were collected, counted, and inoculated.
0.2 mL of 5×10^6 MM.1S cells were subcutaneously inoculated into the right back of each mouse (Beijing Weitong Lihua Biotechnology Co., Ltd., female, 6-8 weeks old) (PBS: Matrigel=1:1)). Administration by groups was initiated when the average tumor volume reached 100-150 mm^3.
Animals were monitored daily for health and mortality, routine tests includes observations of tumor growth and drug treatment effects on animal performance, such as behavioral activities, food intake (visual inspection only), weight change (measured every other day), appearance signs or other abnormal conditions. The number of animal deaths and side effects in the group were recorded based on the number of animals in each group.
The experimental index is to investigate whether tumor growth is inhibited, delayed or cured. Tumor diameters were measured with vernier calipers three times a week. The tumor volume is calculated by: V=0.5a×b^2, where a and b represent the long and short diameters of the tumor, respectively.
The antitumor effect of the compound was evaluated by TGI (%) or relative tumor growth rate T/C (%). TGI (%), reflecting the tumor growth inhibition rate. […]

As to `CC(C)C[C@H](NC(=O)CNC(=O)c1cc(Cl)ccc1Cl)B(O)O` [Ixazomib], the tumor volume was 916 mm^3. Where the note is “vs solvent control”, the T/C was determined as 34.97% and the TGI is reported as 68.65%.
